From US20230021483A1, “[…] […] METHOD AND CLASSIFICATION OF PHARMACEUTICAL COMPONENTS BY USING TRANSCRIPTOMES” (National Institutes of Biomedical Innovation, Health and …, priority 2016, published 2023)

Key:
Assay type in all cases: in vivo, C57BL/6 mice
[1] = system: LV, SP and LNs; assay: Whole organ transcriptome across organs (adjuvant gene space): gene responses and adjuvant grouping
[2] = system: inguinal lymph nodes (LN); assay: Whole organ transcriptome (GeneChip microarray) of draining inguinal lymph nodes 6 h after adjuvant administration: sDEGs, gene modules, hierarchical clustering; details: lymph node; as to adjuvant group (cluster) in LN: key: G1 (interferon signaling); G2 (metabolism of lipids and lipoproteins); G3 (response to stress); G4 (response to wounding); G5 (phosphate-containing compound metabolic process); G6 (phagosome)
[3] = system: preferentially upregulated genes in LV, SP, LN; assay: Z-score-based differential gene expression analysis (adjuvant group- or adjuvant-associated genes, 40 module mapping, TargetMine annotation); details: ID, LV
Method in brief: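 Gene groups for each organ were built from combined z-score cutoffs across adjuvants, ranging from z>1 to z>3. Scores came from fold changes standardized per gene over the whole organ data set, with the three replicate z-scores added per adjuvant; sums above 3 marked preferential expression.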

Monophosphoryl lipid A [MPLA] was tested, and the “consistency of gene responses among individual mice and organs” value ([1]; 6 h, FIG. 5) was “varying gene responses among the individual mice and organs”, the “distribution/strength of gene responses between local LNs and systemic organs (LV, SP)” value ([1]; 6 h after i.d. (local) administration) was “acted on local LNs but not in the systemic remote organs” and the “adjuvant group (cluster) in LN” value ([2]; hierarchical clustering) was “G1”. The “Number of gene probes with statistically significant changes (sDEGs), LN, Down” value ([2]; i.d. administration, fold change <0.667, p<0.01, customized PA call=1, 6 h after adjuvant) was 18, the “Number of gene probes with statistically significant changes (sDEGs), LN, Up” value ([2]; i.d. administration, fold change >1.5, p<0.01, customized PA call=1, 6 h after adjuvant) was 8 and the “Adar 1425405_a_at (Group G1, Modules 20)” value ([3]; sample x1) was −0.2. For the same substance, the “Adar 1434268_at (Group G1, Modules 20)” value ([3]; sample x1) was −0, the “Ddx58 1436562_at (Group G1, Modules 20)” value ([3]; sample x1) was −0.3 and the “Ddx58 1456890_at (Group G1, Modules 20)” value ([3]; sample x1) was −0.2. For the same substance, the “Eif2ak2 1422005_at (Group G1, Modules 20)” value (from here on “Eif2ak2 1422005_at”) ([3]; sample x1) was −0.3, the “G3bp2 1421323_a_at (Group G1, Modules 20)” value (“G3bp2 1421323_a_at” for short) ([3]; sample x1) was −0.3 and the “Gm9706///Isg15 1431591_s_at (Group G1, Modules 20)” value (“Gm9706///Isg15 1431591_s_at” for short) ([3]; sample x1) was −0.5. The “H2-T10///H2-T22///H2-T9 1449875_s_at (Group G1, Modules 20)” value (from here on “H2-T10///H2-T22///H2-T9 1449875_s_at”) ([3]; sample x1) was −0.3, the “Ifih1 1426276_at (Group G1, Modules 20)” value ([3]; sample x1) was −0.4 and the “Ifit1 1450783_at (Group G1, Modules 20)” value ([3]; sample x1) was −0.5. For the same substance, the “Ifit3 1449025_at (Group G1, Modules 20)” value ([3]; sample x1) was −0.5, the “Irf7 1417244_a_at (Group G1, Modules 20)” value ([3]; sample x1) was −0.4 and the “Irgm1 1418825_at (Group G1, Modules 20)” value ([3]; sample x1) was −0.4. The “Mndal 1426906_at (Group G1, Modules 20)” value ([3]; sample x1) was −0.2, the “Pml 1448757_at (Group G1, Modules 20)” value ([3]; sample x1) was −0.4 and the “Pml 1456103_at (Group G1, Modules 20)” value ([3]; sample x1) was −0.3. For the same substance, the “Rnf213 1455500_at (Group G1, Modules 20)” value ([3]; sample x1) was −0.4, the “Rsad2 1436058_at (Group G1, Modules 20)” value ([3]; sample x1) was −0.5 and the “Shisa5 1423986_a_at (Group G1, Modules 20)” value (shortened to “Shisa5 1423986_a_at”) ([3]; sample x1) was −0.2. The “Shisa5 1437503_a_at (Group G1, Modules 20)” value (shortened to “Shisa5 1437503_a_at”) ([3]; sample x1) was −0.3, the “Stat1 1450033_a_at (Group G1, Modules 20)” value (shortened to “Stat1 1450033_a_at”) ([3]; sample x1) was −0.5 and the “Stat1 1450034_at (Group G1, Modules 20)” value ([3]; sample x1) was −0.4. The “Tdrd7 1426716_at (Group G1, Modules 20)” value ([3]; sample x1) was −0.3, the “Tor1aip2 1418115_s_at (Group G1, Modules 20)” value (from here on “Tor1aip2 1418115_s_at”) ([3]; sample x1) was −0.4 and the “Tor1aip2 1418116_at (Group G1, Modules 20)” value (“Tor1aip2 1418116_at” below) ([3]; sample x1) was −0. For the same substance, the “Tor1aip2 1435526_at (Group G1, Modules 20)” value (“Tor1aip2 1435526_at” for short) ([3]; sample x1) was −0.2, the “Trim12a 1437432_a_at (Group G1, Modules 20)” value (from here on “Trim12a 1437432_a_at”) ([3]; sample x1) was −0.4 and the “Uba7 1426970_a_at (Group G1, Modules 20)” value ([3]; sample x1) was −0.1. The “Adar 1425405_a_at (Group G1, Modules 20)” value ([3]; sample x2) was −0.4, the “Adar 1434268_at (Group G1, Modules 20)” value ([3]; sample x2) was −0.3 and the “Ddx58 1436562_at (Group G1, Modules 20)” value ([3]; sample x2) was −0.4. For the same substance, the “Ddx58 1456890_at (Group G1, Modules 20)” value ([3]; sample x2) was −0.1, the “Eif2ak2 1422005_at” value ([3]; sample x2) was −0.4 and the “G3bp2 1421323_a_at” value ([3]; sample x2) was −0.6. The “Gm9706///Isg15 1431591_s_at” value ([3]; sample x2) was −0.5, the “H2-T10///H2-T22///H2-T9 1449875_s_at” value ([3]; sample x2) was −0.3 and the “Ifih1 1426276_at (Group G1, Modules 20)” value ([3]; sample x2) was −0.4. For the same substance, the “Ifit1 1450783_at (Group G1, Modules 20)” value ([3]; sample x2) was −0.5, the “Ifit3 1449025_at (Group G1, Modules 20)” value ([3]; sample x2) was −0.5 and the “Irf7 1417244_a_at (Group G1, Modules 20)” value ([3]; sample x2) was −0.5. The “Irgm1 1418825_at (Group G1, Modules 20)” value ([3]; sample x2) was −0.5, the “Mndal 1426906_at (Group G1, Modules 20)” value ([3]; sample x2) was −0.4 and the “Pml 1448757_at (Group G1, Modules 20)” value ([3]; sample x2) was −0.3. For the same substance, the “Pml 1456103_at (Group G1, Modules 20)” value ([3]; sample x2) was −0.4, the “Rnf213 1455500_at (Group G1, Modules 20)” value ([3]; sample x2) was −0.5 and the “Rsad2 1436058_at (Group G1, Modules 20)” value ([3]; sample x2) was −0.5. The “Shisa5 1423986_a_at” value ([3]; sample x2) was −0.4, the “Shisa5 1437503_a_at” value ([3]; sample x2) was −0.3 and the “Stat1 1450033_a_at” value ([3]; sample x2) was −0.5. The “Stat1 1450034_at (Group G1, Modules 20)” value ([3]; sample x2) was −0.5, the “Tdrd7 1426716_at (Group G1, Modules 20)” value ([3]; sample x2) was −0.3 and the “Tor1aip2 1418115_s_at” value ([3]; sample x2) was −0.4. For the same substance, the “Tor1aip2 1418116_at” value ([3]; sample x2) was −0.3, the “Tor1aip2 1435526_at” value ([3]; sample x2) was −0.1 and the “Trim12a 1437432_a_at” value ([3]; sample x2) was −0.6. For the same substance, the “Uba7 1426970_a_at (Group G1, Modules 20)” value ([3]; sample x2) was −0.2, the “Adar 1425405_a_at (Group G1, Modules 20)” value ([3]; sample x3) was −0.6 and the “Adar 1434268_at (Group G1, Modules 20)” value ([3]; sample x3) was −0.3. The “Ddx58 1436562_at (Group G1, Modules 20)” value ([3]; sample x3) was −0.5, the “Ddx58 1456890_at (Group G1, Modules 20)” value ([3]; sample x3) was −0.4 and the “Eif2ak2 1422005_at” value ([3]; sample x3) was −0.4. For the same substance, the “G3bp2 1421323_a_at” value ([3]; sample x3) was −0.5, the “Gm9706///Isg15 1431591_s_at” value ([3]; sample x3) was −0.5 and the “H2-T10///H2-T22///H2-T9 1449875_s_at” value ([3]; sample x3) was −0.4. For the same substance, the “Ifih1 1426276_at (Group G1, Modules 20)” value ([3]; sample x3) was −0.4, the “Ifit1 1450783_at (Group G1, Modules 20)” value ([3]; sample x3) was −0.5 and the “Ifit3 1449025_at (Group G1, Modules 20)” value ([3]; sample x3) was −0.5. For the same substance, the “Irf7 1417244_a_at (Group G1, Modules 20)” value ([3]; sample x3) was −0.5, the “Irgm1 1418825_at (Group G1, Modules 20)” value ([3]; sample x3) was −0.6 and the “Mndal 1426906_at (Group G1, Modules 20)” value ([3]; sample x3) was −0.5. For the same substance, the “Pml 1448757_at (Group G1, Modules 20)” value ([3]; sample x3) was −0.4, the “Pml 1456103_at (Group G1, Modules 20)” value ([3]; sample x3) was −0.3 and the “Rnf213 1455500_at (Group G1, Modules 20)” value ([3]; sample x3) was −0.5. The “Rsad2 1436058_at (Group G1, Modules 20)” value ([3]; sample x3) was −0.5, the “Shisa5 1423986_a_at” value ([3]; sample x3) was −0.3 and the “Shisa5 1437503_a_at” value ([3]; sample x3) was −0.4. For the same substance, the “Stat1 1450033_a_at” value ([3]; sample x3) was −0.6, the “Stat1 1450034_at (Group G1, Modules 20)” value ([3]; sample x3) was −0.5 and the “Tdrd7 1426716_at (Group G1, Modules 20)” value ([3]; sample x3) was −0.4. The “Tor1aip2 1418115_s_at” value ([3]; sample x3) was −0.6, the “Tor1aip2 1418116_at” value ([3]; sample x3) was −0.2 and the “Tor1aip2 1435526_at” value ([3]; sample x3) was −0.5. The “Trim12a 1437432_a_at” value ([3]; sample x3) was −0.5 and the “Uba7 1426970_a_at (Group G1, Modules 20)” value ([3]; sample x3) was −0.6.
